Like-named read-outs stand apart in the source and are kept apart here.

In patent US9242984B2, “Pyrazolyl derivatives as Syk inhibitors” (Merck Sharp & Dohme Corp., priority 2012, dated 2016) one finds IC50 data, which are given here for 31 compounds.

This test addresses T1, recombinant human Syk (GST-hSyk fusion protein) (Homo sapiens, UniProt P43405).
T1 construct: purchased Carna Biosciences 08-176
The experiment in a line: Homogeneous Time-Resolved Fluorescence (HTRF) assay for the recombinant human Syk enzyme. It is filed as biochemical. The following applies: 10-dose titration, 25 μM ATP. The method, boiled down:
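IC50 came from a four-parameter fit over ten doses, 10 μM to 0.508 nM, with HTRF read-out (Eu-anti-pTyr antibody, SA-APC, EDTA stop, 30 min). The enzyme, 5 pM GST-hSyk, met compound for 10 min, then phosphorylated 250 nM biotin-peptide with 25 μM ATP and 5 mM Mg for 45 min at room temperature, pH 7.5.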

Where [1] appears, read: IC50 class, read-out: rhSYK Activity.

Consider `Cc1cc(Nc2nccc(C(F)(F)F)n2)cc(-c2cnn(CC3(O)CCOC(C)(C)C3)c2)c1` (stereo not drawn) [Example 12.10, 2,2-dimethyl-4-{[4-(3-methyl-5-{[4-(trifluoro-methyl)pyrimidin-2-yl]amino}phenyl)-1H-pyrazol-1-yl]methyl}-tetrahydro-2H-pyran-4-ol], for which the IC50 under setting [1] is at most 100 nM. On to `Cc1cc(Nc2nccc(C(F)(F)F)n2)cc(-c2cnn(CC3(O)CCCOC3)c2)c1` (stereo not drawn) [Example 12.11, 3-{[4-(3-methyl-5-{[4-(trifluoromethyl)pyrimidin-2-yl]amino}phenyl)-1H-pyrazol-1-yl]methyl}-tetrahydro-2H-pyran-3-ol], for which the IC50 under setting [1] was at most 100 nM. For the compound `Cc1cc(Nc2nccc(C(F)(F)F)n2)cc(-c2cnn(CC3COCCC3O)c2)c1` (stereo not drawn) [Example 12.12, 3-{[4-(3-methyl-5-{[4-(trifluoromethyl)pyrimi-din-2-yl]amino}phenyl)-1H-pyrazol-1-yl]methyl}-tetrahydro-2H-pyran-4-ol], under setting [1], the IC50 was at most 100 nM.

On to `Cc1cc(Nc2nccc(C)n2)cc(-c2cnn(CC3(O)CCOCC3)c2)c1` [Example 12.13, 4-[(4-{3-methyl-5-[(4-methylpyrimidin-2-yl)amino]phenyl}-1H-pyrazol-1-yl)methyl]-tetrahydro-2H-pyran-4-ol], for which the IC50 under setting [1] is 100 to 1000 nM. For `Cc1cc(Nc2nccc(C(F)(F)F)n2)cc(-c2cnn(C(C)C3(O)CCOCC3)c2)c1` (stereo not drawn) [Example 12.14, 4-{1-[4-(3-methyl-5-{[4-(trifluoromethyl)pyrimidin-2-yl]amino}phenyl)-1H-pyrazol-1-yl]ethyl}-tetrahydro-2H-pyran-4-ol], under setting [1], the IC50 was at most 100 nM. For `Cc1cc(Nc2nccc(C(F)(F)F)n2)cc(-c2cnn(CC3(O)CCN(CC(=O)O)CC3)c2)c1` [Example 12.15, (4-hydroxy-4-{[4-(3-methyl-5-{[4-(trifluoromethyl)-pyrimidin-2-yl]amino}-phenyl)-1H-pyrazol-1-yl]methyl}piperidin-1-yl)acetic acid], the IC50 under setting [1] is at most 100 nM. Turning to `Cc1cc(Nc2nccc(C(F)(F)F)n2)cc(-c2cnn(C(C)C)c2)c1` [Example 13.1, N-(3-(1-isopropyl-1H-pyrazol-4-yl)-5-methylphenyl)-4-(trifluoromethyl)-pyrimidin-2-amine], the IC50 was 10.7 nM (read-out: rhSYK IC50) and at most 100 nM under setting [1].

As to `Cc1cc(Nc2nccc(C(F)(F)F)n2)cc(-c2cnn(CCC3CCCN3)c2)c1` (stereo not drawn) [Example 13.2, N-{3-methyl-5-[1-(2-pyrrolidin-2-ylethyl)-1H-pyrazol-4-yl]phenyl}-4-(trifluoro-methyl)-pyrimidin-2-amine], under setting [1], the IC50 is at most 100 nM. In the case of `Cc1cc(Nc2nccc(C(F)(F)F)n2)cc(-c2cnn(CC3CCCO3)c2)c1` (stereo not drawn) [Example 13.3, N-{3-methyl-5-[1-(tetra-hydrofuran-2-ylmethyl)-1H-pyrazol-4-yl]phenyl}-4-(trifluoro-methyl)-pyrimidin-2-amine], the IC50 under setting [1] is at most 100 nM. Regarding `Cc1cc(Nc2nccc(C(F)(F)F)n2)cc(-c2cnn([C@H]3CC[C@@H](O)CC3)c2)c1` [Example 15, cis-4-[4-(3-methyl-5-{[4-(trifluoromethyl)pyrimidin-2-yl]amino}phenyl)-1H-pyrazol-1-yl]cyclohexanol], the IC50 is 5.9 nM (read-out: rhSYK IC50) and at most 100 nM under setting [1]. Taken in the same sequence, the figures for `Cc1cc(Nc2nccc(C(F)F)n2)cc(-c2cnn(C[C@H](O)C(N)=O)c2)c1` [Example 16, (2S)-3-[4-(3-{[4-(difluoromethyl)pyrimidin-2-yl]amino}-5-methylphenyl)-1H-pyrazol-1-yl]-2-hydroxypropanamide] were 2.7 nM and at most 100 nM. Take `Cc1cc(Nc2nccc(C(F)(F)F)n2)cc(-c2cnn(CC3(O)CCN(C(N)=O)CC3)c2)c1` [Example 17, 4-hydroxy-4-((4-(3-methyl-5-((4-(trifluoromethyl)pyrimidin-2-yl)amino)phenyl)-1H-pyrazol-1-yl)methyl)piperidine-1-carboxamide]: the IC50 by setting is: (read-out: rhSYK IC50) 13.9 nM; under setting [1], at most 100 nM. Regarding `O=C(O)CCc1cnn(-c2cccc(Nc3cc(C(F)(F)F)ccn3)n2)c1` [Example 18.1, 3-(1-(6-((4-(trifluoromethyl)pyridin-2-yl)amino)pyridin-2-yl)-1H-pyrazol-4-yl)propanoic acid], under setting [1], the IC50 was at most 100 nM. Still for that read-out and setting: with `Cc1ccnc(Nc2cccc(-n3cc(CCC(=O)O)cn3)n2)c1` [Example 18.2, 3-(1-{6-[(4-methylpyridin-2-yl)amino]pyridin-2-yl}-1H-pyrazol-4-yl)propanoic acid] the figure was 100 to 1000 nM. Take `Cc1cc(Nc2cc(C3CC3)ccn2)nc(-n2cc(CCC(=O)O)cn2)c1` [Example 18.3, 3-(1-{6-[(4-cyclopropylpyridin-2-yl)amino]-4-methylpyridin-2-yl}-1H-pyrazol-4-yl)propanoic acid]: the IC50 under setting [1] is at most 100 nM. In the case of `Cc1cc(Nc2cc(C)c(Cl)cn2)nc(-n2cc(CCC(=O)O)cn2)c1` [Example 18.4, 3-(1-{6-[(5-chloro-4-methylpyridin-2-yl)amino]-4-methylpyridin-2-yl}-1H-pyrazol-4-yl)propanoic acid], the IC50 under setting [1] was 100 to 1000 nM.

As to `Cc1cc(Nc2nccc(C(F)(F)F)n2)cc(-n2cc(CCC(=O)O)cn2)c1` [Example 19.1, 3-(1-(3-methyl-5-((4-(trifluoromethyl)pyrimidin-2-yl)amino)phenyl)-1H-pyrazol-4-yl)propanoic acid], the IC50 was 61 nM (read-out: rhSYK IC50) and at most 100 nM under setting [1]. As for `CCOC(=O)CCc1cnn(-c2cc(C)cc(Nc3nccc(C(F)(F)F)n3)c2)c1` [Example 19.2, Ethyl 3-[1-(3-methyl-5-{[4-(trifluoromethyl)-pyrimidin-2-yl]amino}phenyl)-1H-pyrazol-4-yl]propanoate], the IC50 under setting [1] fell in the range of 100 to 1000 nM. On to `Cc1cc(Nc2nccc(C3CC3)n2)cc(-n2cc(CCC(=O)O)cn2)c1` [Example 19.3, 3-(1-{3-[(4-cyclopropylpyrimidin-2-yl)amino]-5-methylphenyl}-1H-pyrazol-4-yl)propanoic acid], for which the IC50 under setting [1] was at most 100 nM.

Consider `CCOC(=O)CCc1cnn(-c2cc(C)cc(Nc3nccc(C4CC4)n3)c2)c1` [Example 19.4, Ethyl 3-(1-{3-[(4-cyclopropylpyrimidin-2-yl)amino]-5-methylphenyl}-1H-pyrazol-4-yl)propanoate], for which the IC50 under setting [1] lay in the range of 100 to 1000 nM.

On to `CCOC(=O)CCc1cnn(-c2cc(C)cc(Nc3nccc(OC)n3)c2)c1` [Example 19.5, Ethyl 3-(1-{3-[(4-methoxypyrimidin-2-yl)amino]-5-methylphenyl}-1H-pyrazol-4-yl)propanoate], for which the IC50 under setting [1] lay in the range of 100 to 1000 nM. On to `CCOC(=O)CCc1cnn(-c2cc(C)cc(Nc3nccc(C)n3)c2)c1` [Example 19.6, Ethyl 3-(1-{3-methyl-5-[(4-methyl-pyrimidin-2-yl)amino]-phenyl}-1H-pyrazol-4-yl)propanoate], for which the IC50 under setting [1] was in the range of 100 to 1000 nM. `Cc1cc(Nc2nccc(C(F)(F)F)n2)cc(-n2cc(C3(O)CCC(C(=O)O)CC3)cn2)c1` (stereo not drawn) [Example 19.10, 4-hydroxy-4-[1-(3-methyl-5-{[4-(trifluoromethyl)pyrimidin-2-yl]amino}phenyl)-1H-pyrazol-4-yl]cyclohexanecarboxylic acid]: the IC50 under setting [1] was in the range of 100 to 1000 nM. On the same count and under the same terms, with `Cc1cc(Nc2nccc(C(F)(F)F)n2)cc(-n2cc(C3(O)CCC(C(=O)O)CC3)cn2)c1` (stereo not drawn) [Example 19.11, 4-hydroxy-4-[1-(3-methyl-5-{[4-(trifluoromethyl)pyrimidin-2-yl]amino}phenyl)-1H-pyrazol-4-yl]cyclohexanecarboxylic acid] the figure was at most 100 nM.

For `Cc1cc(Nc2nccc(C(F)(F)F)n2)cc(-n2cc(C(C)(O)[C@H]3CC[C@H](C(=O)O)CC3)cn2)c1` (stereo partly drawn) [Example 19.12, trans-4-{1-hydroxy-1-[1-(3 methyl-5-{[4-(trifluoromethyl)pyrimidin-2-yl]amino}phenyl)-1H-pyrazol-4-yl]ethyl}cyclohexanecarboxylic acid], the IC50 under setting [1] was at most 100 nM. As to `Cc1cc(Nc2nccc(C(F)(F)F)n2)cc(-n2cc(C(C)(O)[C@H]3CC[C@H](C(=O)O)CC3)cn2)c1` (stereo partly drawn) [Example 19.13, trans-4-{1-hydroxy-1-[1-(3-methyl-5-{[4-(trifluoromethyl)pyrimidin-2-yl]amino}phenyl)-1H-pyrazol-4-yl]ethyl}cyclohexanecarboxylic acid], under setting [1], the IC50 was at most 100 nM.

As to `Cc1cc(Nc2nccc(C(F)(F)F)n2)cc(-n2cc(C3(O)CCC(C(=O)O)C(C)(C)C3)cn2)c1` (stereo not drawn) [Example 19.14, 4-hydroxy-2,2-dimethyl-4-[1-(3-methyl-5-{[4-(trifluoromethyl)pyrimidin-2-yl]amino}phenyl)-1H-pyrazol-4-yl]cyclohexanecarboxylic acid], the IC50 under setting [1] lay within 100 to 1000 nM. Turning to `Cc1cc(Nc2nccc(C(F)(F)F)n2)cc(-n2cc(C3(O)CCC(C(=O)O)C(C)(C)C3)cn2)c1` (stereo not drawn) [Example 19.15, 4-hydroxy-2,2-dimethyl-4-[1-(3-methyl-5-{[4-(trifluoromethyl)pyrimidin-2-yl]amino}phenyl)-1H-pyrazol-4-yl]cyclohexanecarboxylic acid], the IC50 under setting [1] lay in the range of 100 to 1000 nM. Regarding `Cc1cc(Nc2nccc(C(F)(F)F)n2)cc(-c2cnn(CC(C)(O)CC#N)c2)c1` (stereo not drawn) [Example 20.2, 3-hydroxy-3-methyl-4-[4-(3-methyl-5-{[4-(trifluoromethyl)pyrimidin-2-yl]amino}phenyl)-1H-pyrazol-1-yl]butanenitrile], under setting [1], the IC50 was at most 100 nM.

For the compound `Cc1cc(Nc2nccc(C(F)(F)F)n2)cc(-c2cnn(CC(C)(O)CC#N)c2)c1` (stereo not drawn) [Example 20.3, 3-hydroxy-3-methyl-4-[4-(3-methyl-5-{[4-(trifluoromethyl)pyrimidin-2-yl]amino}phenyl)-1H-pyrazol-1-yl]butanenitrile], under setting [1], the IC50 was at most 100 nM. For `Cc1cc(Nc2cc(C(F)(F)F)ccn2)nc(-c2cnn(CC(C)(O)CC#N)c2)c1` (stereo not drawn) [Example 20.4, 3-hydroxy-3-methyl-4-[4-(4-methyl-6-{[4-(trifluoromethyl)pyridin-2-yl]amino}pyridin-2-yl)-1H-pyrazol-1-yl]butanenitrile], the IC50 under setting [1] is at most 100 nM.
